Earlier results on two molecules are cited in patent US12029226B2, “Concentrate for preparing a drinkable solution (II)” (Alzchem Trostberg GmbH, priority 2019, dated 2024).

For this series the following is noted: literature value.

With `CC(O)C(=O)O` (centres unmarked) [lactic acid], the pKs value is listed as 3.90+/−0.11. Take `O=CO` [formic acid]: the pKs value is given as 3.77.
